Reference: ChEMBL document CHEMBL1201862, “PubChem BioAssay data set” (2004)
Activity calls are given as the source filed them.

Tests used:
Nonstructural protein 1 = Nonstructural protein 1 (Influenza A virus, UniProt Q194T2); assay type: functional, Influenza A virus (A/California/07/2009(H1N1))
Caspase-3 = target: T1, Caspase-3 (Homo sapiens, UniProt P42574); assay type: functional;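 also: Dose-response selectivity test against caspase-3 for candidate inhibitors of sentrin-specific proteases (SENPs)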
T1 sequence (P42574 whole entry): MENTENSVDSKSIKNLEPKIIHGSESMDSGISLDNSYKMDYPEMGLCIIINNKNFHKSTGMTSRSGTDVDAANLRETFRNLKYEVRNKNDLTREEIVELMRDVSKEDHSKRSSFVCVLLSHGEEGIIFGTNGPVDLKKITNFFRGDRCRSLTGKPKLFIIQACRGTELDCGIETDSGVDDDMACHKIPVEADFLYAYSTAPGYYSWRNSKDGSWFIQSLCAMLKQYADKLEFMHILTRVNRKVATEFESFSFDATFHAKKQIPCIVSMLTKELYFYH

[1] = target: T2, Sentrin-specific protease 7 (Homo sapiens, UniProt Q9BQF6); assay type: functional;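 also: Luminescence-based dose-response confirmation of ultra-high-throughput screening hits, measuring inhibition of SENP7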
T2 sequence (Q9BQF6 whole entry): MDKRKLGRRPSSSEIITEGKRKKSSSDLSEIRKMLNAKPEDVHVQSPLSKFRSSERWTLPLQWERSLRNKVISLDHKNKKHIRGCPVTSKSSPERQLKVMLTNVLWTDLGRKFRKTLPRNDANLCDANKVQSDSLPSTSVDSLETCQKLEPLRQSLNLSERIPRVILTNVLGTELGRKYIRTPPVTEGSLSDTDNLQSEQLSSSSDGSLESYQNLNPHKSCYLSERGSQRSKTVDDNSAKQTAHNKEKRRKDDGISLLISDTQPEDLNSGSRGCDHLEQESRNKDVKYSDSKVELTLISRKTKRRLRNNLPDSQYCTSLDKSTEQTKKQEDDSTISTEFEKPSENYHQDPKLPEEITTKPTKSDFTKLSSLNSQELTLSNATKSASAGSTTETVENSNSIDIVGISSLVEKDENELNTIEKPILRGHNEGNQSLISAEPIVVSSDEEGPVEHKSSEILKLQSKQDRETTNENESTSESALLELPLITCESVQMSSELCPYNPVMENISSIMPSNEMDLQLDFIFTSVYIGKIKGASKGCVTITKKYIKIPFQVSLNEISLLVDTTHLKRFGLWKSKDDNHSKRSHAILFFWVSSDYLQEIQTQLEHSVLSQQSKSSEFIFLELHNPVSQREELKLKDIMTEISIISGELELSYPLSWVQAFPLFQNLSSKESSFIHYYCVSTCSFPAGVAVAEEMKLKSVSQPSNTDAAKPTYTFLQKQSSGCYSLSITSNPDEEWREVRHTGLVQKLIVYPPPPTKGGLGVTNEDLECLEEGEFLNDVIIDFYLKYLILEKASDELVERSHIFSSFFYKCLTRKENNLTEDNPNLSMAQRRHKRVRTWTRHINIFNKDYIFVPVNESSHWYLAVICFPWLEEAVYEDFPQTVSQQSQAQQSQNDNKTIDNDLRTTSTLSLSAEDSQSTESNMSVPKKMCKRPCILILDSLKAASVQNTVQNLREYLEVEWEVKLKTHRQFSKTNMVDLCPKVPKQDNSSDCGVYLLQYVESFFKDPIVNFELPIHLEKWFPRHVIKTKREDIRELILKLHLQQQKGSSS

[2] = target: T3, Sentrin-specific protease 6 (Homo sapiens, UniProt Q9GZR1); assay type: functional;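 also: Luminescence-based dose-response confirmatory assay of SENP6 inhibition, following up an ultra-high-throughput screen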
T3 sequence (Q9GZR1 whole entry): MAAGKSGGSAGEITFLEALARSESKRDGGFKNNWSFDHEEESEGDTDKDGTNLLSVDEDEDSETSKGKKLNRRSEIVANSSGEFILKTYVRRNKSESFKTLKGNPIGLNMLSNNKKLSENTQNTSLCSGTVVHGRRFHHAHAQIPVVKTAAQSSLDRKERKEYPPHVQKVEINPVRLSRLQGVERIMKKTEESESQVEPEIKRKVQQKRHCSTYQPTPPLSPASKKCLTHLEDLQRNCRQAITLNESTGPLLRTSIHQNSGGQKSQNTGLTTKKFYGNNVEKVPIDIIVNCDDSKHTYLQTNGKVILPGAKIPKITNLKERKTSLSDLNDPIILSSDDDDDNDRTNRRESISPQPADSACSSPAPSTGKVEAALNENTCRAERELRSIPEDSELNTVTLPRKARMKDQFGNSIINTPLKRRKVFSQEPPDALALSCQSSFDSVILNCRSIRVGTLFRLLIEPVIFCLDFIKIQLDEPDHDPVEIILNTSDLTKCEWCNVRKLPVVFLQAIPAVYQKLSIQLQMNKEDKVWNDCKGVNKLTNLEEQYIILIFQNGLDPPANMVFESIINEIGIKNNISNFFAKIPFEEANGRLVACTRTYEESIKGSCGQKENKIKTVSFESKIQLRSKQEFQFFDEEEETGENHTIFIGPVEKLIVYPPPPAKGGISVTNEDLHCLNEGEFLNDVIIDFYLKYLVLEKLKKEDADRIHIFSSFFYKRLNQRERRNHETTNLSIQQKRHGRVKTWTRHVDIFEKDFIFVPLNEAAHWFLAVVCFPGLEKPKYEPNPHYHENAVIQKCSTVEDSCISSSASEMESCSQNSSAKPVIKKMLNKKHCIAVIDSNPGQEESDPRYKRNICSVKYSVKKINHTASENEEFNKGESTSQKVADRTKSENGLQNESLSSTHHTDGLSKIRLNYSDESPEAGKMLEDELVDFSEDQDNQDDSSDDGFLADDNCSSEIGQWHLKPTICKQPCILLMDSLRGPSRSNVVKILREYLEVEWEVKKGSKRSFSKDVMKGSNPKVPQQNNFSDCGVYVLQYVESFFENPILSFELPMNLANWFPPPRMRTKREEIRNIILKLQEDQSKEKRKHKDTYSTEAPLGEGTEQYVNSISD

[3] = target: T4, Sentrin-specific protease 8 (Homo sapiens, UniProt Q96LD8); assay type: functional;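 also: luminescence read-out of SENP8 inhibition, dose-response confirmation following an ultra-high-throughput screen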
T4 sequence (Q96LD8 whole entry): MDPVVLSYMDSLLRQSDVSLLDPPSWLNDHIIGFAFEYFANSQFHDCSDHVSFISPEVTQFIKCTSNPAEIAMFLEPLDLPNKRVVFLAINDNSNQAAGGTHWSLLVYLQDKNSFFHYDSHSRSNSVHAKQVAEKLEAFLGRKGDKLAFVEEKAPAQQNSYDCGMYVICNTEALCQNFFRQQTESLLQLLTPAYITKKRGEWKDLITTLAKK

[4] = inhibitors of firefly luciferase expression or activity, dose response, H4 neuroglioma cells, luminescence (AID 1990); assay type: functional, cell-based
[5] = Luminescence Cell-Based Dose Response HTS to Identify Inhibitors of 5'UTR Stem-Loop Driven Prion Protein mRNA Translation in H4 Neuroglioblastoma Cells. [Related pubchem assays: 1827 (Project Summary), 1813 (Primary HTS)]; assay type: functional
[6] = inhibitors of SNCA 5'UTR-driven reporter translation, confirmation, H4 neuroglioma cells, luminescence (AID 1988); assay type: functional, cell-based
[7] = cytotoxicity in HEK-293T cells, dose response, cytotoxicity control for BCR NF-kB inhibitor project, luminescence, B-cell screen hits (AID 489021); assay type: functional, cell-based;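 also: HEK-293T cells carrying an NF-kB luciferase reporter; cells exposed to compound for about 14 hours before viability readout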
H9c2 = assay: cells; assay type: functional, cell-based; conditions: Rattus norvegicus, H9c2, Myocardium
Protein skinhead-1 = target: T5, Protein skinhead-1 (Caenorhabditis elegans, UniProt P34707); assay type: functional
T5 sequence (P34707 whole entry): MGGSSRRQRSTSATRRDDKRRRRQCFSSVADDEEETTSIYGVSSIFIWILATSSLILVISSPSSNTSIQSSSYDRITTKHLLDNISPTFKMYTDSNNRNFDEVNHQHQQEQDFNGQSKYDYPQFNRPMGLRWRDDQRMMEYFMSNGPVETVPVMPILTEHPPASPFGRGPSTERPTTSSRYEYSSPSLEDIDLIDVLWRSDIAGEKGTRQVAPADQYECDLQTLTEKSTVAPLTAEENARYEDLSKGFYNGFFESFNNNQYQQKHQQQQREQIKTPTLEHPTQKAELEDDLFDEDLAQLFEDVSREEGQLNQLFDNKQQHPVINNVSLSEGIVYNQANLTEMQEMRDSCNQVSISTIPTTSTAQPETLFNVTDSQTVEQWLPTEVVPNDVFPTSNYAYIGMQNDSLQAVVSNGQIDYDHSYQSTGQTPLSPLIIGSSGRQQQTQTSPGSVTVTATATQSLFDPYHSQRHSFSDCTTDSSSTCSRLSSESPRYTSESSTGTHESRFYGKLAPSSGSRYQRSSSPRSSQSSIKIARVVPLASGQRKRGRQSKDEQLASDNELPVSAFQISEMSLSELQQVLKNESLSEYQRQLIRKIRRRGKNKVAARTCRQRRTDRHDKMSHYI

[8] = target: T6, Corticotropin-releasing factor receptor 2/Corticotropin-releasing factor-binding protein (Homo sapiens, UniProt P24387+Q13324); assay: Dose Response confirmation of uHTS hits for small molecule antagonists of the CRF-binding protein and CRF-R2 receptor complex.; assay type: functional; conditions: read-out: IC50_Mean
T6 sequence (Q13324 whole entry): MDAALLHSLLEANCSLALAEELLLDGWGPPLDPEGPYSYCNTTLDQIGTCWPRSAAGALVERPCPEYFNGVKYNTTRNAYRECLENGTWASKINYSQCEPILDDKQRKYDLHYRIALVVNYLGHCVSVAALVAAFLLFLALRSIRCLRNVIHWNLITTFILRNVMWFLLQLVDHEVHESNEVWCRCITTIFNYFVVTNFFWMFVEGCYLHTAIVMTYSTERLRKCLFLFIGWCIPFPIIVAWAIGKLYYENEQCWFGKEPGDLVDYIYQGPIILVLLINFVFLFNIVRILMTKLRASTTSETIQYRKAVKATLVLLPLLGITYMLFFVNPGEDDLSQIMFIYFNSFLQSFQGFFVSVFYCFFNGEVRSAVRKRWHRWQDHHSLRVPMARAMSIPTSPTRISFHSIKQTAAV
T6 sequence (P24387 whole entry): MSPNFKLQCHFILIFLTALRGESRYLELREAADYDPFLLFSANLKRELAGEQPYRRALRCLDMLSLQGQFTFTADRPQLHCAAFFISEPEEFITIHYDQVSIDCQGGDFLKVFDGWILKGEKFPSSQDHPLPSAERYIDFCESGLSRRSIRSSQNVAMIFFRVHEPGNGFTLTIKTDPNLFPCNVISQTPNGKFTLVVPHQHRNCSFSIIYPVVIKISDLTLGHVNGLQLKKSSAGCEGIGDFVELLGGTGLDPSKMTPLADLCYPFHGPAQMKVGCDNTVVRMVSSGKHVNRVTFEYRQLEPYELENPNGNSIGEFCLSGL

[9] = target: T6, Corticotropin-releasing factor receptor 2/Corticotropin-releasing factor-binding protein; assay: activators of CRF receptor 2 with binding protein – uHTS hits, confirmation (AID 602473); assay type: functional; conditions: read-out: EC50_Mean
[10] = test system: Streptococcus sp. 'group A'; assay: growth inhibition of control SK(-) GAS strain, dose response, counter-screen for streptokinase expression inhibitor project, luminescence, kanamycin, BacTiterGlo, confirmation (AID 1900); assay type: functional, organism-based
[11] = inhibitors of intracellular T. cruzi replication, confirmation, NIH3T3 host cells, beta-gal luminescence (AID 2044); assay type: functional, cell-based;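 also: intracellular parasites grown in NIH/3T3 mouse fibroblasts as host cells; luminescent beta-galactosidase reporter signal from transgenic T. cruzi replicating inside host cells; inhibitors lower the luminescence signal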
[12] = microbe, parasite or virus in culture; assay type: functional; conditions: Mycobacterium tuberculosis
[13] = cytotoxicity toward NIH3T3 fibroblasts, dose response, counter-screen, cell-based, ATP luminescence, mouse fibroblasts (AID 2010); assay type: functional;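 also: cells exposed to compound for about 90 hours before reading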
Streptococcus = assay: Group A Streptococcus viability loss, dose response, counter-screen for streptokinase expression inhibitor project, luminescence, BacTiterGlo (AID 1915); assay type: functional, organism-based;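 also: potency for reduction of bacterial viability or growth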
INS1 = assay: beta cell apoptosis inhibitors, cytokine rescue, dose response, luminescence, retest (AID 449756); assay type: functional, cell-based; conditions: Rattus norvegicus;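 also: cell death triggered by IL-1 beta plus TNF-alpha plus IFN-gamma mixture; protective hits raise ATP signal compared with cytokine alone wells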

Chain of Nonstructural protein 1 (Q194T2 whole entry): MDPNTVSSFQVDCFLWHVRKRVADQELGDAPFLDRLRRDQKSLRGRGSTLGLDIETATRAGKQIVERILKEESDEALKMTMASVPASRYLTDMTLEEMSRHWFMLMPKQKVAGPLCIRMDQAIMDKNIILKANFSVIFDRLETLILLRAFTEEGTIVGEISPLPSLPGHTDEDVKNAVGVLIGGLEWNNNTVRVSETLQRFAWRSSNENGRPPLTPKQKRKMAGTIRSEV

## O=C(O)c1cc2c3ccccc3nc-2c[nH]1
Nonstructural protein 1
  IC50: 5.27 µM (active)

## COc1ccc(Nc2ccc(S(=O)(=O)N3CCCCC3)cc2[N+](=O)[O-])cc1OC
Nonstructural protein 1
  IC50: 28.8 µM (active)

## COc1ccc2nc(Nc3nc4cc5c(cc4s3)OCCO5)sc2c1
Caspase-3
  IC50: 37 µM (active)
[1]
  IC50: 5.81 µM (active)
[2]
  IC50: 66.6 µM (active)
[3]
  IC50: > 100 µM (inactive)

## COc1cccc(N=Nc2ccc3ccccc3c2O)c1
Nonstructural protein 1
  IC50: 5.22 µM (active)

## CN(C)c1ccc([C@@H]2[C@@H]([N+](=O)[O-])[C@H]3C=Cc4ccccc4N3[C@H]2C(=O)c2ccc(Cl)cc2)cc1
Nonstructural protein 1
  IC50: 26.5 µM (active)

## Cc1ccc(NC(=O)C2CCC(CNc3c(N4CCC(C)CC4)c(=O)c3=O)CC2)cc1F (stereo unspecified)
[4]
  EC50: 11.5 µM (active)
[5]
  EC50: > 120 µM (not active)
[6]
  EC50: > 120 µM (not active)
[7]
  IC50: > 80 µM (inactive)

## COC(=O)c1cc2c(-c3ccccc3)cc3ccccn3c-2c1C(=O)OC
Nonstructural protein 1
  IC50: 19.2 µM (active)
H9c2
  IC50: > 79 µM (inactive)

## Cc1ccc2oc(-c3ccco3)nc2c1
Caspase-3
  IC50: 6.87 µM (active)
[1]
  IC50: 5.87 µM (active)
[2]
  IC50: 21.3 µM (active)
[3]
  IC50: > 100 µM (inactive)

## Brc1ccc(-c2cnc(-c3cccs3)o2)cc1
Caspase-3
  IC50: 29.5 µM (active)
[1]
  IC50: 5.42 µM (active)
[2]
  IC50: 15 µM (active)
[3]
  IC50: 27.6 µM (active)
Protein skinhead-1
  IC50: 19.7 µM (active)

## O=C(c1cc2nc(-c3ccccc3)cc(-c3ccccc3)n2n1)N1CCN(C(=O)c2ccco2)CC1
[7]
  IC50: 72.3 µM (inactive)
H9c2
  IC50: > 79 µM (inactive)
[8]
  IC50: > 47.1 µM (inactive)
[9]
  EC50: > 53 µM (inactive)

## COc1ccccc1Nc1ncccc1[N+](=O)[O-]
Nonstructural protein 1
  IC50: 29.9 µM (active)

## Cc1c(NC(=O)/C=C/c2cn(-c3ccccc3)nc2-c2ccccc2)c(=O)n(-c2ccccc2)n1C
[7]
  IC50: > 80 µM (inactive)

## NC(=S)NN=Cc1nccc2ccccc12
Nonstructural protein 1
  IC50: 2.03 µM (active)

## CC1CCN(CCCNC(=O)COc2cc(=O)n(C)c3ccccc23)CC1
[7]
  IC50: > 80 µM (inactive)

## Cc1ccc(C2(c3ccc(C)cc3)CC2C(=O)Nc2ccc([N+](=O)[O-])cc2O)cc1 (stereo unspecified)
[4]
  EC50: 10.1 µM (active)
[10]
  EC50: 2.34 µM (active)
[5]
  EC50: 13.7 µM (active)
[6]
  EC50: 9.29 µM (active)
[11]
  EC50: 3.31 µM (active)
[12]
  CC50: 3.29 µM (active)
[13]
  EC50: > 60 µM (not active)
Streptococcus
  EC50: 4.17 µM (active)
[7]
  IC50: 33.8 µM (inactive)
INS1
  AC50: 3.61 µM (active)
